In ChEMBL document CHEMBL1158133, “Cytotoxic flavaglines and bisamides from Aglaia edulis” (J Nat Prod, 2006):
In brackets after ≈: the same amount, converted by molar mass.

Experiments:
[1] = test system: Lu1; test: Cytotoxicity against human Lu1 cells; assay type: functional; conditions: read-out: ED50 (the source's name)
[2] = test system: LNCaP; test: Cytotoxicity against human LNCAP cells; assay type: functional; conditions: read-out: ED50 (the source's name)
[3] = test system: MCF7; test: Cytotoxicity against human MCF7 cells; assay type: functional; conditions: read-out: ED50 (the source's name)
[4] = Cytotoxicity against HUVEC; assay type: cell-based; conditions: human, HUVEC cells; read-out: ED50 (the source's name)
[5] = test system: P388; test: In vivo antitumor activity against mouse P388 cellsleukemia model at 4.5 mg/kg, ip; assay type: functional; conditions: route intraperitoneal

SMILES | EC50 [1] | EC50 [2] | EC50 [3] | CC50 [4] | T/C [5]
COc1ccc([C@@]23Oc4cc5c(c(OC)c4[C@]2(O)[C@H](OC(C)=O)[C@H](C(=O)N(C)C)[C@H]3c2ccccc2)OCO5)cc1 | 0.001 µg/mL (≈ 0.00178 µM) | 0.01 µg/mL (≈ 0.0178 µM) | 0.02 µg/mL (≈ 0.0356 µM) | 0.5 µg/mL (≈ 0.89 µM) | 110%
COC1CCCN1C(=O)/C=C/c1ccccc1 (stereo not given) [AGLAMIDE D] | > 5 µg/mL | > 5 µg/mL | > 5 µg/mL | > 5 µg/mL | –
COc1ccc([C@@]23Oc4cc5c(c(OC)c4[C@]2(O)[C@H](OC(C)=O)[C@H](C(=O)N(C)C)[C@H]3c2ccccc2)OCO5)cc1OC | 0.5 µg/mL (≈ 0.845 µM) | 0.3 µg/mL (≈ 0.507 µM) | 0.8 µg/mL (≈ 1.35 µM) | 0.5 µg/mL (≈ 0.845 µM) | –
COc1ccc([C@]23Oc4cc5c(c(OC)c4[C@](O)([C@H](C(=O)N4CCCC4NC(=O)CC(C)C)[C@H]2c2ccccc2)[C@@H]3OC(C)=O)OCO5)cc1 (stereo not given in full) | > 5 µg/mL | > 5 µg/mL | > 5 µg/mL | > 5 µg/mL | –
COc1ccc(C2C(=O)Oc3cc4c(c(OC)c32)OCO4)cc1 (stereo not given) [AGLALACTONE] | > 5 µg/mL | > 5 µg/mL | > 5 µg/mL | > 5 µg/mL | –
C[S+]([O-])/C=C/C(=O)NC1CCCN1C(=O)/C=C/c1ccccc1 (stereo not given) [AGLAMIDE B] | > 5 µg/mL | > 5 µg/mL | > 5 µg/mL | > 5 µg/mL | –
COc1ccc([C@@]23Oc4cc5c(c(OC)c4[C@]2(O)[C@H](O)[C@H](C(=O)N(C)C)[C@H]3c2ccccc2)OCO5)cc1 [AGLAROXIN A] | 0.04 µg/mL (≈ 0.077 µM) | 0.02 µg/mL (≈ 0.0385 µM) | 0.06 µg/mL (≈ 0.115 µM) | 0.1 µg/mL (≈ 0.192 µM) | –
COc1ccc([C@]23Oc4cc5c(c(OC)c4[C@](O)([C@H](C(=O)N4CCCC4NC(=O)CC(C)C)[C@H]2c2ccccc2)[C@@H]3O)OCO5)cc1 (stereo not given in full) [EDULIRIN A] | > 5 µg/mL | > 5 µg/mL | > 5 µg/mL | > 5 µg/mL | –
COc1ccc(-c2oc3cc(OC)c(OC)c(O)c3c(=O)c2OC)cc1 | > 5 µg/mL | > 5 µg/mL | > 5 µg/mL | > 5 µg/mL | –
CS/C=C/C(=O)NC1CCCN1C(=O)/C=C/c1ccccc1 (stereo not given) [AGLAMIDE A] | > 5 µg/mL | > 5 µg/mL | > 5 µg/mL | > 5 µg/mL | –
CC(C)CC(=O)NC1CCCN1C(=O)/C=C/c1ccccc1 (stereo not given) [AGLAMIDE C] | > 5 µg/mL | > 5 µg/mL | > 5 µg/mL | > 5 µg/mL | –
COc1ccc([C@]23Oc4cc5c(c(OC)c4[C@](O)([C@@H](c4ccccc4)[C@@H]2C(=O)N2CCCC2NC(=O)CC(C)C)[C@@H]3O)OCO5)cc1 (stereo not given in full) [ISOEDULIRIN A] | > 5 µg/mL | > 5 µg/mL | > 5 µg/mL | > 5 µg/mL | –
COC(=O)[C@@]1(c2ccc(OC)cc2)Oc2cc3c(c(OC)c2C(=O)[C@H](C(=O)N2CCC[C@@H]2NC(=O)C=C(C)C)[C@H]1c1ccccc1)OCO3 [19,20-DEHYDROEDULISONE A] | > 5 µg/mL | > 5 µg/mL | > 5 µg/mL | > 5 µg/mL | –
COc1cc2ccc(=O)oc2cc1O [SCOPOLETIN] | > 5 µg/mL | > 5 µg/mL | > 5 µg/mL | > 5 µg/mL | –
COc1ccc([C@]23Oc4cc5c(c(OC)c4[C@](O)([C@H](c4ccccc4)[C@H]2C(=O)N2CCCC2NC(=O)CC(C)C)[C@@H]3O)OCO5)cc1 (stereo not given in full) [EDULIRIN B] | > 5 µg/mL | > 5 µg/mL | > 5 µg/mL | > 5 µg/mL | –
COc1ccc([C@]23Oc4cc5c(c(OC)c4[C@](O)([C@H](C(=O)N4CCCC4NC(=O)C=C(C)C)[C@H]2c2ccccc2)[C@@H]3O)OCO5)cc1 (stereo not given in full) [19,20-DEHYDROEDULIRIN A] | > 5 µg/mL | > 5 µg/mL | > 5 µg/mL | > 5 µg/mL | –
